From ChEMBL document CHEMBL1128904, “Synthesis and biological activity of 1-alkylcarbonylmethyl analogues of YM022” (Bioorg Med Chem Lett, 1996)
Calls of active or inactive are those of the source. The rule behind the calls is not given here.

How the values were obtained:
Rattus norvegicus [1] = assay: Compound was evaluated for in vivo inhibition of pentagastrin induced gastric acid secretion in rats after iv administration at dose of 0.03 umol/kg; format: functional; conditions: Stomach
Rattus norvegicus [2] = assay: Compound was evaluated for in vivo inhibition of pentagastrin induced gastric acid secretion in rats after id administration at dose of 0.3 umol/kg; format: functional; conditions: Stomach
[3] = target: T1, Gastrin/cholecystokinin type B receptor (Rattus norvegicus, UniProt P30553); assay: Ability to displace [125I]CCK-8 from gastrin/Cholecystokinin type B receptor from rat brain; format: tissue-based
T1 sequence (P30553 whole entry): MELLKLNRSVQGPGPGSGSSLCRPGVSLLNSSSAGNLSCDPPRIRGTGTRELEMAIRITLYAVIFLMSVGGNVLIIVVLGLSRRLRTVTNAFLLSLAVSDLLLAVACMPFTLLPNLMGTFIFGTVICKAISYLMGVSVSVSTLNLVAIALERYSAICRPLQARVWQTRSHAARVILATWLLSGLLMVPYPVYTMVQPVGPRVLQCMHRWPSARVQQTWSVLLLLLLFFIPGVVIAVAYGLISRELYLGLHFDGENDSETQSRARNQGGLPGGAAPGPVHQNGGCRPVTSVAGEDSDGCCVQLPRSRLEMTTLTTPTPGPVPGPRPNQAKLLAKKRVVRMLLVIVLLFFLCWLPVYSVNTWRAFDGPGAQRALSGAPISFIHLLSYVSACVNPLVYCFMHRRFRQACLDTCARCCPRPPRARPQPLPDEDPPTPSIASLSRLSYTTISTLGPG

Rattus norvegicus [4] = assay: Compound was evaluated for in vivo inhibition of pentagastrin induced gastric acid secretion in rats by 50% after iv administration; format: functional; conditions: Stomach
Rattus norvegicus [5] = assay: Compound was evaluated for in vivo inhibition of pentagastrin induced gastric acid secretion in rats after id administration at dose of 0.3 umol/kg; Not determined; format: functional, organism-based; conditions: Stomach
[6] = target: T2, Cholecystokinin receptor type A (Rattus norvegicus, UniProt P30551); assay: Compound was evaluated for its ability to displace [3H]L-364718 from Cholecystokinin type A receptor from rat pancreas
T2 sequence (P30551 whole entry): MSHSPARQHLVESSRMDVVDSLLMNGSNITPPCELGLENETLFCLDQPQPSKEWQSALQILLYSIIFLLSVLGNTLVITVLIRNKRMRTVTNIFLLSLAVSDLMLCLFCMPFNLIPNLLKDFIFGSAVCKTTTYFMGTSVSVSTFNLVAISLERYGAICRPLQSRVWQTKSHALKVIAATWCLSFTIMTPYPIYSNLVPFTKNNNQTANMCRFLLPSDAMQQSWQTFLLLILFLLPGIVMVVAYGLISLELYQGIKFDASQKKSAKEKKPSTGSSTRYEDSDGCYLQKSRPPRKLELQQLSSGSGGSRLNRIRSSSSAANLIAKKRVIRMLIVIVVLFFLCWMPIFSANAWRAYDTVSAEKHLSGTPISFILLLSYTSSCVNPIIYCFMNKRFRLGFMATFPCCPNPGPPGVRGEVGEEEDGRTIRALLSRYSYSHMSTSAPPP

Rattus norvegicus [7] = assay: Compound was evaluated for in vivo inhibition of pentagastrin induced gastric acid secretion in rats after iv administration at dose of 0.1 umol/kg; format: functional; conditions: Stomach
Rattus norvegicus [8] = assay: Compound was evaluated for inhibition of pentagastrin induced gastric acid secretion in rats after id administration at dose of 0.3 umol/kg; format: functional; conditions: Stomach
Rattus norvegicus [9] = assay: Compound was evaluated for inhibition of pentagastrin induced gastric acid secretion in rats by 50% after iv administration; format: functional; conditions: Stomach

Structure (SMILES)	inhibition in vivo at 0.03 µmol/kg (Rattus norvegicus [1]) [%]	IC50 [3] [nM]	other results
Cc1cccc(NC(=O)N[C@@H]2N=C(c3ccccc3)c3ccccc3N(CC(=O)C3CCCC3)C2=O)c1	79.9		inhibition in vivo at 0.3 µmol/kg (Rattus norvegicus [2]): 31%
CCC(CC)C(=O)CN1C(=O)C(NC(=O)Nc2cccc(C)c2)N=C(c2ccccc2)c2ccccc21 (configuration not stated)		1.9	
Cc1cccc(NC(=O)N[C@@H]2N=C(c3ccccc3)c3ccccc3N(C)C2=O)c1 [L-365260]	0		ED50 (Rattus norvegicus [4]): 4.23 µmol/kg; inhibition (Rattus norvegicus [5]): inactive
Cc1cccc(NC(=O)NC2N=C(c3ccccc3)c3ccccc3N(CC(=O)CC3CCCCC3)C2=O)c1 (configuration not stated)		0.28	
Cc1cccc(NC(=O)NC2N=C(c3ccccc3)c3ccccc3N(CC(=O)C(C)(C)C)C2=O)c1 (configuration not stated)	76.7	0.52	ED50 (Rattus norvegicus [4]): 0.0057 µmol/kg; inhibition in vivo at 0.3 µmol/kg (Rattus norvegicus [2]): 80%
Cc1cccc(NC(=O)NC2N=C(c3ccccc3)c3ccccc3N(CC(=O)C3CCC3)C2=O)c1 (configuration not stated)		2.37	
Cc1cccc(NC(=O)N[C@H]2N=C(c3ccccc3)c3ccccc3N(CC(=O)C3CCCC3)C2=O)c1		6.1	
Cc1cccc(NC(=O)N[C@@H]2N=C(c3ccccc3)c3ccccc3N(CC(=O)c3ccccc3C)C2=O)c1	80	0.11	IC50 [6]: 146 nM; ED50 (Rattus norvegicus [4]): 0.0078 µmol/kg; inhibition in vivo at 0.3 µmol/kg (Rattus norvegicus [2]): 16%
Cc1cccc(NC(=O)NC2N=C(c3ccccc3)c3ccccc3N(CC(=O)C(C)C)C2=O)c1 (configuration not stated)		2.1	
CCC(C)(C)C(=O)CN1C(=O)C(NC(=O)Nc2cccc(C)c2)N=C(c2ccccc2)c2ccccc21 (configuration not stated)		0.57	
Cc1cccc(NC(=O)NC2N=C(c3ccccc3)c3ccccc3N(CC(=O)C3(C)CC3)C2=O)c1 (configuration not stated)		0.41	
Cc1cccc(NC(=O)NC2N=C(c3ccccc3)c3ccccc3N(CC(=O)C(C)(C)C3CCCCC3)C2=O)c1 (configuration not stated)		0.86	
Cc1cccc(NC(=O)NC2N=C(c3ccccc3)c3ccccc3N(CC(=O)C3(C)CCCC3)C2=O)c1 (configuration not stated)		0.1	
Cc1cccc(NC(=O)NC2N=C(c3ccccc3)c3ccccc3N(CC(=O)C3CCCCC3)C2=O)c1 (configuration not stated)		0.4	inhibition in vivo at 0.1 µmol/kg (Rattus norvegicus [7]): 67%
Cc1cccc(NC(=O)NC2N=C(c3ccccc3)c3ccccc3N(CC(=O)C3CCCCCC3)C2=O)c1 (configuration not stated)	53.5	2	
Cc1cccc(NC(=O)NC2N=C(c3ccccc3)c3ccccc3N(CC(=O)C3(C)CCCCC3)C2=O)c1 (configuration not stated)		0.38	
Cc1cccc(NC(=O)NC2N=C(c3ccccc3)c3ccccc3N(CC(=O)C3CCCC3)C2=O)c1 (configuration not stated)	65.2	0.23	inhibition in vivo at 0.3 µmol/kg (Rattus norvegicus [8]): 36%; ED50 (Rattus norvegicus [9]): 0.0155 µmol/kg
